{"source": "patent US12193994B2", "about": "“Combination of a cell therapy and a gamma secretase inhibitor” (Juno Therapeutics, Inc., priority 2017, dated 2025)", "system": "RPMI-8226 human multiple myeloma xenograft", "type": "in vivo", "method": "Anti-tumor effects following administration of anti-BCMA CAR T cells and a gamma secretase inhibitor compound, LY3039478, each, individually, and in combination, were assessed in a RPMI-8226 human multiple myeloma xenograft mouse model. The anti-BCMA CAR-expressing T cells were generated as described in Example 2.\nNOD.Cg.PrkdescidIL2rgtm1 Wjl/SzJ (NSG) mice were injected subcutaneously (s.c.) with 1E+07 RPMI-8226 cells modified to express GFP and firefly luciferase (RPMI-8226 ffluc), and tumor volume was allowed to increase over the course of 25 days, the 25th day being designated “day 0” in this study. Animals were divided into 8 groups, and each group received one of the following treatments: (1) vehicle only, (2) LY3039478 (3 mg/kg) only, (3) Mock T cells (not expressing the CAR) (3.00E+06 T cells per mouse) and vehicle, (4) Mock T cells (3.00E+06 T cells per mouse) and LY3039478 (3 mg/kg), (5) anti-BCMA CAR+ T cells (1.00E+06 CAR+ cells per mouse) and vehicle, (6) anti-BCMA CAR+ T cells (1.00E+06 CAR+ cells per mouse) and LY3039478 (3 mg/kg), (7) anti-BCMA CAR+ T cells (3.00E+06 CAR+ cells per mouse) and vehicle, or (8) anti-BCMA CAR+ T cells (3.00E+06 CAR+ cells per mouse) and LY3039478 (3 mg/kg). In each group, LY3039478 or vehicle was delivered by mouth (p.o.) at day-1 and at day zero (0) and every other day (e.o.d.) up to day 21. Where applicable, T cells were administered by a single intravenous (i.v.) injection on day 0.\nCAR+ T cells in blood and in tumor were assessed on days 7, […], 21, and 28 by flow cytometry using antibodies specific for cell surface markers and a reagent specific to the anti-BCMA CAR. Animal survival was monitored throughout the study.\nThe presence of CAR+ T cells in the blood was monitored over the course of the study (from blood drawn on days 7, 14, 21 and 28 post CAR-T cell administration). White blood cells from blood samples were stained with various reagents to detect various markers on the surface of immune cells, including T cells, and expression of the CAR (including a reagent specific for the CAR and a reagent specific for a transduction marker encoded by the CAR vector).\nTumor digests were also analyzed to determine the number of CD4+ and CD8+ CAR+ T cells in tumors following the various treatment conditions. […] Serum BCMA was also assessed according to treatment condition.", "key": {"[1]": {"details": "no CAR+ T cells, LY3039478 3 mg/kg p.o. alone or with Mock T cells 3.00E+06"}}, "data": [{"smiles": "C[C@H](NC(=O)CCC(F)(F)F)C(=O)N[C@@H]1C(=O)N(CCO)c2ncccc2-c2ccccc21", "note": "[LY3039478, 4,4,4-trifluoro-N-[(1S)-2-[[(7S)-5-(2-hydroxyethyl)-6-oxo-7H-pyrido[2,3-d][3]benzazepin-7-yl]amino]-1-methyl-2-oxo-ethyl]butanamide]", "values": [{"measurement": "Day 65 Survival %", "setting": "[1]", "result": 0, "unit": "%"}, {"measurement": "Median Survival", "setting": "[1]", "result": 22.5, "unit": "days"}, {"measurement": "Number of deaths", "setting": "[1]", "result": 10}, {"measurement": "surface BCMA MFI on RPMI-8226 tumor cells (tumor digests, flow cytometry)", "setting": "presence of LY3039478, days 7 and 15", "result": "increased"}, {"measurement": "peripheral blood count of CD4+ or CD8+ T cells that did not express the anti-BCMA CAR", "setting": "treated with or without LY3039478", "result": "No changes"}]}]}
